Experimental data reported in patent EP4595972A1, “PEPTIDE FOR TREATING OR PREVENTING 4R TAUOPATHY” (GemVax & KAEL Co., Ltd., priority 2022, dated 2024).

Key:
[1] = patients with mild or moderate Alzheimer's disease; most general cause for stopping high-dose LMTM; cited from earlier work
[2] = test system: AT8 (phospho-Tau S202/T205); experiment: AT8 immunofluorescent staining of brain tissues (tau hyperphosphorylation); format: in vivo, mouse
Description: • 1) Experimental method for brain tissue sampling • (1) On day 1, after completing 63 times administration schedule, the mice of TauP301L-BiFC mouse model were anesthetized, followed by preparing heart laparotomy. • (2) Saline was introduced into the heart of each mouse in the TauP301L-BiFC mouse model, followed by removing vivo blood using a perfusion pump machine. • (3) The brain of the mouse was extracted and weighed. • (4) The brain to be used for tissue staining experiment was immersed in 4% FPA solution and fixed for 24 hours. • (5) On day 2, after completing fixation, the brain tissues were immersed in 20% sucrose solution to remove water for 24 hours. • (6) On day 3, the brain tissues were immersed in 30% sucrose solution to remove water for 48 hours. • (7) On day 5, the brain tissues free of water were taken and extra moisture was removed. Then, the brain tissues and a frozen tissue embedding agent (OCT compound) were placed in a prepared mold, followed by freezing the brain tissues as fast as possible while protecting the tissues. The frozen brain tissue-containing mold was stored in a defreezer at -80°C. Thereafter, using a cryostat for frozen fragment, the tissues were cut into a unit thickness of 30 µm and stored in 0.05% sodium azide solution.
• (1) On day 1, a brain tissue sample having a thickness of 30 µm under cryosection was selected for each brain region, immersed in PBS solution, and then washed three times for 10 minutes. • (3) The sample was fixed in 3.7% formaldehyde for 5 minutes. • (4) The sample was washed in PBS solution three times for 10 minutes. • (5) The brain tissue sample was subjected to permeabilization in 0.3% PBS-T solution. • (6) The sample was immersed in 5% BSA in PBS solution for 1 hour for blocking. • (7) The brain tissues were input into 3% BSA in which primary antibody (AT8) was diluted at a ratio of 1:200, 0.1% Tween-20 in PBS solution, followed by overnight (O/N) binding. • (8) On day 2, the brain tissues were immersed in PBS solution, and washed three times for 10 minutes. • (9) The brain tissues were input into 3% BSA in which secondary antibody was diluted at a ratio of 1:500, 0.1% Tween-20 in PBS solution, followed by binding at room temperature for 1 hour. • (10) The brain tissues were immersed in PBS solution, and washed once for 10 minutes. • (11) The brain tissues were immersed in Hoechst (stock conc., 1mg/mL) diluted at a ratio of 1:2000 in PBS solution, followed by nuclei staining. • (12) The brain tissues were immersed in PBS solution, and washed three times for 10 minutes. • (13) Brain tissue fluorescent imaging was performed using a slide scanner.
• (1) In order to obtain fluorescent images of the stained brain tissues, a brain tissue slide was scanned using Zeiss Axio Scan (Zeiss, Oberkochen, Germany). • BiFC fluorescence: λex=460-490 nm, λem=500-550 nm • AT8 fluorescence: λex=620-640 nm, λem=650-700 nm • Hoechst fluorescence: λex=330-375 nm, λem=430-470 nm • (3) For brain tissues per site obtained through imaging, fluorescent value was calculated through Image J software (NIH).

[3] = LMTM 15 mg/kg oral vs. vehicle, decrease (in parentheses)
[4] = LMTM 15 mg/kg oral vs. vehicle, decrease (in parentheses), *p<0.05

For CN(C)c1ccc2c(c1)Sc1cc(N(C)C)ccc1N2.CS(=O)(=O)O.CS(=O)(=O)O [LMTM], the “most common side effects” value [1] is listed as “most common side effects related to gastrointestinal and urinary system”, the “AT8 fluorescent level, Somatosensory cortex” value [2, 3] is listed as “(31 %)” and the “AT8 fluorescent level, Substantia nigra” value [2, 3] is listed as “(16 %)”. For the same compound, the “AT8 fluorescent level, Hippocampus” value [2, 4] was “(28 %)*”, the “AT8 fluorescent level, Motor cortex” value [2, 4] was “(26 %)*” and the “AT8 fluorescent level as compared to the vehicle group, in words” value ([2]; LMTM 15 mpk) was “significantly reduced in the somatosensory cortex, motor cortex and hippocampus regions”.
